Laboratory results from patent US20230159445A1, “STAT INHIBITORY COMPOUNDS AND COMPOSITIONS” (JANPIX LIMITED, priority 2020, published 2023).

Experiments:
[1] = tested on: glutathione (GSH); assay: Reactivity Profiling with Glutathione (GSH), half-life by HPLC; details: 5 mM glutathione (GSH) in IMDM with 10% FBS
[2] = tested on: MV4-11 cells; assay: MV4-11 Cell Cytotoxicity Assay (CellTiter-Blue, 72 h); format: cell-based, human; details: Homo sapiens, MV4-11; MV-4-11 cells
Summary of the method: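 Viability read-out: CellTiter-Blue, 1 h, fluorescence 560/590 nm. Preceded by 72 h exposure (37° C, 5% CO2) to twofold dilution series from 50 μM, triplicate, 0.5% DMSO vehicle, applied 24 h after plating.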

Compound | half-life at 25 μM [1] [h] | IC50 [2] [nM]
CN(C)c1cc(C(=O)O)c(F)cc1N(Cc1cc(C2CC2)cc(C(C)(C)C)c1)C(=O)CN(Cc1c(F)cc(F)cc1F)S(=O)(=O)c1c(F)c(F)c(F)c(F)c1F [Compound 1124, 4-(N-(3-(tert-butyl)-5-cyclopropylbenzyl)-2-(N-(2,4,6-trifluorobenzyl)-(2,3,4,5,6-pentafluoro-phenyl)sulfonamido)acetamido)-5-(dimethylamino)-2-fluorobenzoic acid] | 4.12 to 9.23 | 0.01 to 316
O=C(O)c1ccc(N(Cc2ncccn2)C(=O)CN(Cc2ccccc2C(F)(F)F)S(=O)(=O)c2c(F)c(F)c(F)c(F)c2F)c(OC2CC2)c1 [Compound 1128, 3-cyclopropoxy-4-(2-(N-(2-(trifluoromethyl)benzyl)-(2,3,4,5,6-pentafluoro-phenyl)sulfonamido)-N-(pyrimidin-2-ylmethyl)acetamido) benzoic acid] | 0.00167 to 2.37 | 1000 to 3160
COc1cc(C(=O)O)ccc1N(Cc1cc(C2CC2)cc(C(C)(C)C)c1)C(=O)CN(Cc1ccc(C(F)(F)F)nc1)S(=O)(=O)c1c(F)c(F)c(F)c(F)c1F [Compound 1132, 4-(N-(3-(tert-butyl)-5-cyclopropylbenzyl)-2-(N-((6-(trifluoromethyl)pyridin-3-yl)methyl)-(2,3,4,5,6-pentafluoro-phenyl)sulfonamido)acetamido)-3-methoxybenzoic acid] | 2.37 to 4.12 | 316 to 1000
COc1cc(C(=O)O)ccc1N(Cc1cc(C2CC2)cc(C(C)(C)C)c1)C(=O)CN(Cc1cc(C(F)(F)F)ccn1)S(=O)(=O)c1c(F)c(F)c(F)c(F)c1F [Compound 1134, 4-(N-(3-(tert-butyl)-5-cyclopropylbenzyl)-2-(N-((4-(trifluoromethyl)pyridin-2-yl)methyl)-(2,3,4,5,6-pentafluoro-phenyl)sulfonamido)acetamido)-3-methoxybenzoic acid] | 2.37 to 4.12 | 1000 to 3160
COc1cc(C(=O)N(C)S(C)(=O)=O)ccc1N(Cc1cc(C2CC2)cc(C(C)(C)C)c1)C(=O)CN(Cc1cnccc1C(F)(F)F)S(=O)(=O)c1c(F)c(F)c(F)c(F)c1F [Compound 1147, 4-(N-(3-(tert-butyl)-5-cyclopropylbenzyl)-2-(N-((4-(trifluoromethyl)pyridin-3-yl)methyl)-(2,3,4,5,6-pentafluoro-phenyl)sulfonamido)acetamido)-3-methoxy-N-methyl-N-(methylsulfonyl) benzamide] | 9.23 to 1670 | 0.01 to 316
COc1cc(C(=O)O)ccc1N(Cc1cccc(C(C)(C)C)c1)C(=O)CN(Cc1cnccc1C(F)(F)F)S(=O)(=O)c1c(F)c(F)c(F)c(F)c1F [Compound 1149, 4-(N-(3-(tert-butyl)benzyl)-2-(N-((4-(trifluoromethyl)pyridin-3-yl)methyl)-(2,3,4,5,6-pentafluoro-phenyl)sulfonamido)acetamido)-3-methoxybenzoic acid] | 0.00167 to 2.37 | 316 to 1000
COc1cc(C(=O)O)ccc1N(Cc1cccc(C(C)(C)C)c1)C(=O)CN(Cc1c(F)cc(F)cc1F)S(=O)(=O)c1c(F)c(F)c(F)c(F)c1F [Compound 1150, 4-(N-(3-(tert-butyl)benzyl)-2-(N-(2,4,6-trifluorobenzyl)-(2,3,4,5,6-pentafluoro-phenyl)sulfonamido)acetamido)-3-methoxybenzoic acid] | 0.00167 to 2.37 | 0.01 to 316
COc1cc(C(=O)O)ccc1N(Cc1cccc(N2CCCC2)c1)C(=O)CN(Cc1cnccc1C(F)(F)F)S(=O)(=O)c1c(F)c(F)c(F)c(F)c1F [Compound 1153, 3-methoxy-4-(2-(N-((4-(trifluoromethyl)pyridin-3-yl)methyl)-(2,3,4,5,6-pentafluoro-phenyl)sulfonamido)-N-(3-(pyrrolidin-1-yl)benzyl)acetamido) benzoic acid] | 0.00167 to 2.37 | 316 to 1000

Continued, in another order:

half-life at 25 μM [1] [h] | Compound | IC50 [2] [nM]
0.00167 to 2.37 | COc1cc(C(=O)O)ccc1N(Cc1cc(C2CC2)cc(C(C)(C)C)c1)C(=O)CN(Cc1cccc(C(F)(F)F)n1)S(=O)(=O)c1c(F)c(F)c(F)c(F)c1F [Compound 1118, 4-(N-(3-(tert-butyl)-5-cyclopropylbenzyl)-2-(N-((6-(trifluoromethyl)pyridin-2-yl)methyl)-(2,3,4,5,6-pentafluoro-phenyl)sulfonamido)acetamido)-3-methoxybenzoic acid] | 316 to 1000
0.00167 to 2.37 | O=C(O)c1ccc(N(Cc2ccccc2)C(=O)CN(Cc2ccccc2C(F)(F)F)S(=O)(=O)c2c(F)c(F)c(F)c(F)c2F)c(OC2CC2)c1 [Compound 1126, 4-(N-benzyl-2-(N-(2-(trifluoromethyl)benzyl)-(2,3,4,5,6-pentafluoro-phenyl)sulfonamido)acetamido)-3-cyclopropoxybenzoic acid] | 1000 to 3160
2.37 to 4.12 | O=C(O)c1ccc(N(C(=O)CN(Cc2ccccc2C(F)(F)F)S(=O)(=O)c2c(F)c(F)c(F)c(F)c2F)C2CCC2)c(OC2CC2)c1 [Compound 1129, 4-(N-cyclobutyl-2-(N-(2-(trifluoromethyl)benzyl)-(2,3,4,5,6-pentafluoro-phenyl)sulfonamido)acetamido)-3-cyclopropoxybenzoic acid] | 3160 to 100000
2.37 to 4.12 | COc1cc(C(=O)O)ccc1N(Cc1cc(C2CC2)cc(C(C)(C)C)c1)C(=O)CN(Cc1ccncc1C(F)(F)F)S(=O)(=O)c1c(F)c(F)c(F)c(F)c1F [Compound 1130, 4-(N-(3-(tert-butyl)-5-cyclopropylbenzyl)-2-(N-((3-(trifluoromethyl)pyridin-4-yl)methyl)-(2,3,4,5,6-pentafluoro-phenyl)sulfonamido)acetamido)-3-methoxybenzoic acid] | 316 to 1000
0.00167 to 2.37 | COc1cc(C(=O)O)ccc1N(Cc1cc(C2CC2)cc(C(C)(C)C)c1)C(=O)CN(Cc1ccnc(C(F)(F)F)c1)S(=O)(=O)c1c(F)c(F)c(F)c(F)c1F [Compound 1133, 4-(N-(3-(tert-butyl)-5-cyclopropylbenzyl)-2-(N-((2-(trifluoromethyl)pyridin-4-yl)methyl)-(2,3,4,5,6-pentafluoro-phenyl)sulfonamido)acetamido)-3-methoxybenzoic acid] | 316 to 1000
9.23 to 1670 | CC(C)(C)c1cc(CN(C(=O)CN(Cc2ccc(C(F)(F)F)cc2)S(=O)(=O)c2c(F)c(F)c(F)c(F)c2F)c2ccc(C(=O)O)cc2OC2CC2)cc(C2CC2)c1 [Compound 1136, 4-(N-(3-(tert-butyl)-5-cyclopropylbenzyl)-2-(N-(4-(trifluoromethyl)benzyl)-(2,3,4,5,6-pentafluoro-phenyl)sulfonamido)acetamido)-3-cyclopropoxybenzoic acid] | 1000 to 3160
0.00167 to 2.37 | O=C(O)c1ccc(N(C(=O)CN(Cc2c(F)cc(F)cc2F)S(=O)(=O)c2c(F)c(F)c(F)c(F)c2F)C2CCC2)c(OC2CC2)c1 [Compound 1137, 4-(N-cyclobutyl-2-(N-(2,4,6-trifluorobenzyl)-(2,3,4,5,6-pentafluoro-phenyl)sulfonamido)acetamido)-3-cyclopropoxybenzoic acid] | 1000 to 3160
0.00167 to 2.37 | COc1cc(C(=O)O)ccc1N(Cc1cc(C2CC2)cc(C(C)(C)C)c1)C(=O)CN(C12CC(C1)C2)S(=O)(=O)c1c(F)c(F)c(F)c(F)c1F [Compound 1152, 4-(2-(N-(bicyclo[1.1.1]pentan-1-yl)-(2,3,4,5,6-pentafluorophenyl)sulfon-amido)-N-(3-(tert-butyl)-5-cyclopropylbenzyl)acetamido)-3-methoxybenzoic acid] | 1000 to 3160
